From patent US9169241B2, “Quinolinyloxyphenylsulfonamides” (Max-Planck-Gesellschaft Zur Forderung der Wissenschaften …, priority 2009, dated 2015)
Like-named read-outs stand apart in the source and are kept apart here. Values belong to the molecule of their own block, whether it stands above or below them.

Tests used:
Format in all cases: cell-based
Hs578T [1] = test: Wound healing migration assay; settings: Homo sapiens, Hs-578T; HS578T cell line; Table Ib
Method in brief: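 Compound exposure at 12.5, 6.25 and 3.125 μM, with DMSO control, on scratch-wounded monolayers (150000 cells/24 well, overnight). Wound closure imaged by microscopy, fixed with crystal violet after 48 h or 72 h depending on cell line; IC50 is the concentration giving 50% wound size between t0 and t48/t72.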

SF126 [2] = test: Matrigel outgrowth assay/branching assay; settings: Homo sapiens, SF-126, Table Vb, read-out: Total branching inhibition in Matrigel SF126
Method in brief: (§1)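 Invasive outgrowth into a 3 mg/ml Matrigel gel is judged from images taken after 48, 72 and 96 h of exposure to 3.125, 1.56 or 0.78 μM compound, with DMSO as control. Positive means total inhibition of branching.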

A172 = test: Matrigel outgrowth assay/branching assay; settings: Homo sapiens, A 172, Table Vb, read-out: Total branching inhibition in Matrigel A172
Method in brief: as §1

U118 = test: Matrigel outgrowth assay/branching assay; settings: Table Vb, read-out: Total branching inhibition in Matrigel U118
Method in brief: as §1

SF126 [3] = test: Apoptosis assay (Cellomics, nucleus condensation); settings: Homo sapiens, SF-126, Table III, read-out: Apoptosis induction in SF126
Method in brief: (§2)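 Cells seeded at 5000 per well were stained live with Hoechst 33342, and nuclear condensation was quantified per nucleus by automated fluorescence imaging alongside cell counts. Compound was tested at 12.5, 6.25, 3.125, 1.56, 0.78 and 0.39 μM against a DMSO control, with reads at 24 h and 48 h.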

U138 = test: Apoptosis assay (Cellomics, nucleus condensation); settings: Table III, read-out: Apoptosis induction in U138
Method in brief: as §2

C8161 = test: Apoptosis assay (Cellomics, nucleus condensation); settings: Homo sapiens, Table III, read-out: Apoptosis induction in C8161
Method in brief: as §2

SF763 = test: Apoptosis assay (Cellomics, nucleus condensation); settings: Table III, read-out: Apoptosis induction in SF763
Method in brief: as §2

Hs578T [4] = test: Apoptosis assay (Cellomics, nucleus condensation); settings: Homo sapiens, Hs-578T, Table III, read-out: Apoptosis induction in Hs578T
Method in brief: as §2

viable cells in culture = test: Cell viability assay at 10 μM (CellTiter-Glo, Table VII); settings: compound 10 μM, 72 h;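 further: graded A 0-20%; B 21-40%; C 41-60%; D over 60% viable cells relative to DMSO control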
Method in brief: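 Cells were seeded at 1000 cells/well in 96-well plates in 100 μl culture medium and incubated for 72 h with 10 μM compound or a DMSO control. ATP content, which reflects metabolically active and therefore viable cells, was then determined by CellTiter-Glo luminescence (Promega) per the manufacturer's instructions and expressed relative to the DMSO control.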

tumor cell = test: Matrigel outgrowth assay/branching assay (Table Va)
Method in brief: as §1

cells = test: Boyden chamber migration assay (Table VI); settings: Homo sapiens, Hs-578T, 16 h, Hs578T cells; 16 h migration
Method in brief: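 Migration read-out is a count of fixed cells on the underside of an […] insert membrane after 16 h. Chemoattractant was medium with 10% FCS in the lower chamber; 20000 cells started in serum-free medium with 0.1% BSA above, and those left on top were removed by swab.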

IC50 (Hs578T [1]): ≤ 12.5 µM
Structure (SMILES): COc1cc2c(Oc3ccc(NS(=O)(=O)c4ccccc4OC(F)(F)F)cc3F)ccnc2cc1OCCCN(C)C [Example 179, N-{4-[7-(3-Dimethylamino-propoxy)-6-methoxy-quinolin-4-yloxy]-3-fluoro-phenyl}-2-trifluoromethoxy-benzenesulfonamide]
IC100 (SF126 [2]): ≤ 12.5 µM
IC100 (A172): > 12.5 µM
IC100 (U118): ≤ 12.5 µM

IC50 (Hs578T [1]): ≤ 12.5 µM
Structure (SMILES): COC(=O)c1sccc1S(=O)(=O)Nc1ccc(Oc2ccnc3cc(OCCCN4CCCCC4)c(OC)cc23)c(F)c1 [Example 155, 3-{3-Fluoro-4-[6-methoxy-7-(3-piperidin-1-yl-propoxy)-quinolin-4-yloxy]-phenylsulfamoyl}-thiophene-2-carboxylic acid methyl ester]
IC100 (SF126 [2]): ≤ 12.5 µM
IC100 (A172): ≤ 12.5 µM
IC100 (U118): ≤ 12.5 µM

IC50 (Hs578T [1]): ≤ 12.5 µM
Structure (SMILES): COc1cc2c(Oc3ccc(NS(=O)(=O)c4cc(F)ccc4F)cc3Cl)ccnc2cc1OCCCN1CCN(C)CC1 [Example 112, N-(3-Chloro-4-{6-methoxy-7-[3-(4-methyl-piperazin-1-yl)-propoxy]-quinolin-4-yloxy}-phenyl)-2,5-difluoro-benzenesulfonamide]
IC100 (SF126 [2]): ≤ 12.5 µM
IC100 (A172): ≤ 12.5 µM
IC100 (U118): ≤ 12.5 µM

IC50 (Hs578T [1]): ≤ 12.5 µM
Structure (SMILES): COc1cc2c(Oc3ccc(NS(=O)(=O)c4ccccc4[N+](=O)[O-])cc3F)ccnc2cc1OCCCN1CCCC(C)C1 (stereo not shown) [Example 40, N-(3-Fluoro-4-{6-methoxy-7-[3-(3-methyl-piperidin-1-yl)-propoxy]-quinolin-4-yloxy}-phenyl)-2-nitro-benzenesulfonamide]
IC100 (SF126 [2]): ≤ 12.5 µM
IC100 (A172): > 12.5 µM
IC100 (U118): > 12.5 µM

IC50 (SF126 [3]): ≤ 12.5 µM
IC50 (U138): ≤ 12.5 µM
IC50 (C8161): ≤ 12.5 µM
IC50 (SF763): ≤ 12.5 µM
IC50 (Hs578T [4]): ≤ 12.5 µM
IC50 (tumor cell; Homo sapiens, C8161 cells, read-out: Total branching inhibition in Matrigel C8161): 5 to 50 µM
IC50 (tumor cell; Homo sapiens, Hs-578T, Hs578T cells, read-out: Total branching inhibition in Matrigel Hs578T): 5 to 50 µM
IC50 (tumor cell; U118 cells, read-out: Total branching inhibition in Matrigel U118): ≤ 5 µM
IC50 (tumor cell; U138 cells, read-out: Total branching inhibition in Matrigel U138): 5 to 50 µM
IC50 (cells): ≤ 5 µM
Structure (SMILES): COc1cc2c(Oc3ccc(NS(=O)(=O)c4cccc(Oc5ccccc5)c4)cc3F)ccnc2cc1OCCCN1CCN(C)CC1 [Example 14, N-(3-Fluoro-4-{6-methoxy-7-[3-(4-methyl-piperazin-1-yl)-propoxy]-quinolin-4-yloxy}-phenyl)-3-phenoxy-benzenesulfonamide]
viability at 10 µM (viable cells in culture; Homo sapiens, HCT-116, HCT116 def, read-out: percentage (%) of viable cells HCT 116def): 21 to 40%
viability at 10 µM (viable cells in culture; Homo sapiens, HCT-116, HCT116 wt, read-out: percentage (%) of viable cells HCT 116wt): 0 to 20%
viability at 10 µM (viable cells in culture; Homo sapiens, HT-29, HT29, read-out: percentage (%) of viable cells HT29): 0 to 20%
viability at 10 µM (viable cells in culture; Homo sapiens, NCI-H358, H358, read-out: percentage (%) of viable cells H358): 21 to 40%
viability at 10 µM (viable cells in culture; Homo sapiens, NCI-H1650, H1650, read-out: percentage (%) of viable cells H1650): 21 to 40%
viability at 10 µM (viable cells in culture; Homo sapiens, NCI-H1666, H1666, read-out: percentage (%) of viable cells H1666): 41 to 60%
viability at 10 µM (viable cells in culture; Homo sapiens, NCI-H1975, H1975, read-out: percentage (%) of viable cells H1975): 21 to 40%
viability at 10 µM (viable cells in culture; Homo sapiens, NCI-H1993, H1993, read-out: percentage (%) of viable cells H1993): 0 to 20%
viability at 10 µM (viable cells in culture; Homo sapiens, A549, read-out: percentage (%) of viable cells A549): 41 to 60%
viability at 10 µM (viable cells in culture; Homo sapiens, HCC827, read-out: percentage (%) of viable cells HCC827): 21 to 40%
viability at 10 µM (viable cells in culture; Homo sapiens, SW480, read-out: percentage (%) of viable cells SW480): 0 to 20%
viability at 10 µM (viable cells in culture; RKO, read-out: percentage (%) of viable cells RKO): 0 to 20%
IC100 (U118): ≤ 12.5 µM

IC50 (Hs578T [1]): ≤ 12.5 µM
Structure (SMILES): COC(=O)c1sccc1S(=O)(=O)Nc1ccc(Oc2ccnc3cc(OCCCN4CCN(C)CC4)c(OC)cc23)c(F)c1 [Example 158, 3-(3-Fluoro-4-{6-methoxy-7-[3-(4-methyl-piperazin-1-yl)-propoxy]-quinolin-4-yloxy}-phenylsulfamoyl)-thiophene-2-carboxylic acid methyl ester]
IC100 (SF126 [2]): ≤ 12.5 µM
IC100 (A172): > 12.5 µM
IC100 (U118): ≤ 12.5 µM

IC50 (Hs578T [1]): ≤ 12.5 µM
Structure (SMILES): COC(=O)c1sccc1S(=O)(=O)Nc1ccc(Oc2ccnc3cc(OCCCN4CCOCC4)c(OC)cc23)c(F)c1 [Example 157, 3-{3-Fluoro-4-[6-methoxy-7-(3-morpholin-4-yl-propoxy)-quinolin-4-yloxy]-phenylsulfamoyl}-thiophene-2-carboxylic acid methyl ester]
IC100 (SF126 [2]): ≤ 12.5 µM
IC100 (A172): > 12.5 µM
IC100 (U118): > 12.5 µM

IC50 (Hs578T [1]): ≤ 12.5 µM
Structure (SMILES): COC(=O)c1sccc1S(=O)(=O)Nc1ccc(Oc2ccnc3cc(OCCCN4CCC(C)CC4)c(OC)cc23)c(F)c1 [Example 156, 3-(3-Fluoro-4-{6-methoxy-7-[3-(4-methyl-piperidin-1-yl)-propoxy]-quinolin-4-yloxy}-phenylsulfamoyl)-thiophene-2-carboxylic acid methyl ester]
IC100 (SF126 [2]): ≤ 12.5 µM
IC100 (A172): > 12.5 µM
IC100 (U118): ≤ 12.5 µM

IC50 (Hs578T [1]): ≤ 12.5 µM
Structure (SMILES): COc1cc2c(Oc3ccc(NS(=O)(=O)c4ccccc4OC(F)(F)F)cc3F)ccnc2cc1OCCCN1CCCC(C)C1 (stereo not shown) [Example 45, N-(3-Fluoro-4-{6-methoxy-7-[3-(3-methyl-piperidin-1-yl)-propoxy]-quinolin-4-yloxy}-phenyl)-2-trifluoromethoxy-benzenesulfonamide]
IC100 (SF126 [2]): ≤ 12.5 µM
IC100 (A172): > 12.5 µM
IC100 (U118): ≤ 12.5 µM

IC50 (Hs578T [1]): ≤ 12.5 µM
Structure (SMILES): COc1cc2c(Oc3ccc(NS(=O)(=O)c4c(Cl)cccc4Cl)cc3F)ccnc2cc1OCCCN1CCCCC1 [Example 6, 2,6-Dichloro-N-{3-fluoro-4-[6-methoxy-7-(3-piperidin-1-yl-propoxy)-quinolin-4-yloxy]-phenyl}-benzenesulfonamide]
IC100 (SF126 [2]): ≤ 12.5 µM
IC100 (A172): > 12.5 µM
IC100 (U118): ≤ 12.5 µM

IC50 (Hs578T [1]): ≤ 12.5 µM
Structure (SMILES): COc1cc2c(Oc3c(Cl)cc(NS(=O)(=O)c4ccccc4C(F)(F)F)cc3Cl)ccnc2cc1OCCCN1CCC(C)CC1 [Example 210, N-(3,5-Dichloro-4-{6-methoxy-7-[3-(4-methyl-piperidin-1-yl)-propoxy]-quinolin-4-yloxy}-phenyl)-2-trifluoromethyl-benzenesulfonamide]
IC100 (SF126 [2]): ≤ 12.5 µM
IC100 (A172): > 12.5 µM
IC100 (U118): ≤ 12.5 µM

IC50 (Hs578T [1]): ≤ 12.5 µM
Structure (SMILES): COc1cc2c(Oc3ccc(NS(=O)(=O)c4ccccc4OC(F)(F)F)cc3F)ccnc2cc1OCCCN1CCCCC1 [Example 78, N-{3-Fluoro-4-[6-methoxy-7-(3-piperidin-1-yl-propoxy)-quinolin-4-yloxy]-phenyl}-2-trifluoromethoxy-benzenesulfonamide]
IC100 (SF126 [2]): ≤ 12.5 µM
IC100 (A172): > 12.5 µM
IC100 (U118): > 12.5 µM

IC50 (Hs578T [1]): ≤ 12.5 µM
Structure (SMILES): COc1cc2c(Oc3ccc(NS(=O)(=O)c4cccc(Cl)c4F)cc3F)ccnc2cc1OCCCN1CCCC(C)C1 (stereo not shown) [Example 54, 3-Chloro-2-fluoro-N-(3-fluoro-4-{6-methoxy-7-[3-(3-methyl-piperidin-1-yl)-propoxy]-quinolin-4-yloxy}-phenyl)-benzenesulfonamide]
IC100 (SF126 [2]): ≤ 12.5 µM
IC100 (A172): > 12.5 µM
IC100 (U118): > 12.5 µM

IC50 (Hs578T [1]): ≤ 12.5 µM
Structure (SMILES): COc1cc2c(Oc3ccc(NS(=O)(=O)c4c(Cl)cccc4Cl)cc3F)ccnc2cc1OCCCN(C)C [Example 181, 2,6-Dichloro-N-{4-[7-(3-dimethylamino-propoxy)-6-methoxy-quinolin-4-yloxy]-3-fluoro-phenyl}-benzenesulfonamide]
IC100 (SF126 [2]): ≤ 12.5 µM
IC100 (A172): > 12.5 µM
IC100 (U118): ≤ 12.5 µM

IC50 (Hs578T [1]): 12.5 to 50 µM
Structure (SMILES): COc1cc2c(Oc3ccc(NS(=O)(=O)c4c(F)cccc4F)cc3F)ccnc2cc1OCCCN(C)C [Example 178, N-{4-[7-(3-Dimethylamino-propoxy)-6-methoxy-quinolin-4-yloxy]-3-fluoro-phenyl}-2,6-difluoro-benzenesulfonamide]
IC100 (SF126 [2]): ≤ 12.5 µM
IC100 (A172): > 12.5 µM
IC100 (U118): ≤ 12.5 µM
